From article PMC5518866 (British Journal of Cancer, 2017)
Where two headings read alike, the source gives them in different places.

Legend:
[1] = tested on: previously treated patients with SCLC; conditions: phase II, ref Stephenson et al, 2014; cited from earlier work
advanced malignancies = conditions: phase I, cited from earlier work
human cancer cell lines = conditions: large panel of human cancer cell lines; ref Siemeister et al, 2012; cited from earlier work
[2] = tested on: cell-cycle CDKs 1, 2, 4, and 6 and transcriptional CDKs 7 and 9; conditions: cited from earlier work
[3] = tested on: proliferating cell nuclear antigen (PCNA); assay: PCNA RNA expression in whole blood; type: in vivo, human; conditions: for Difference of mean ΔCT values from baseline (ΔΔCT), PCNA: 6 h post dose, whole blood
xenograft mouse models = conditions: ref Siemeister et al, 2012; cited from earlier work
[4] = tested on: patients with advanced malignancies; assay: Tumour response; type: in vivo, human; conditions: 10 patients
[5] = tested on: patients with advanced malignancies; assay: Tumour response; type: in vivo, human
[6] = 104 patients with solid tumours
[7] = seven patients, lymphoid malignancy dose-escalation cohorts

Q: Which results are given for `CCc1cnn2c(NCc3ccc[n+]([O-])c3)cc(N3CCCC[C@H]3CCO)nc12` [dinaciclib]?
A: Objective responses [1]: no objective responses; Disease control rate (DCR) (advanced malignancies; ref Nemunaitis et al, 2013): 20.8%

Q: For `CC(=O)c1c(C)c2cnc(Nc3ccc(N4CCNCC4)cn3)nc2n(C2CCCC2)c1=O` [palbociclib], which “Disease control rate (DCR)” value (advanced malignancies; ref Flaherty et al, 2012) is on record?
A: The value was 27%.

Q: For roniciclib, which Anti-proliferative activity (human cancer cell lines) is on record?
A: The Anti-proliferative activity was “broad-spectrum anti-proliferative activity”.

Q: What about the “Activity against CDKs” value [2] of the same compound?
A: Its value is “low nanomolar activity”.

Q: What about the “PCNA expression in peripheral whole blood (fold-change from baseline)” value ([3]; 6 h post dose on cycle 1, day 1, ovarian cancer and SCLC patients) of the same compound?
A: Its value is “significantly inhibited expression of PCNA”.

Q: And the “Difference of mean ΔCT values from baseline (ΔΔCT), PCNA” value (“Difference of mean ΔCT values” below) ([3]; Ovarian cancer cohort, Cycle 1, day 1)?
A: The value was 1.720.

Q: And the “Difference of mean ΔCT values” value ([3]; Ovarian cancer cohort, Cycle 1, day 10)?
A: The value was 0.521.

Q: And the “Difference of mean ΔCT values” value ([3]; SCLC cohort, Cycle 1, day 1)?
A: Its value is 1.006.

Q: And the “Difference of mean ΔCT values” value ([3]; SCLC cohort, Cycle 1, day 10)?
A: The value was 0.224.

Q: And the Tumour growth inhibition (xenograft mouse models)?
A: The Tumour growth inhibition was “strongly inhibited tumour growth in a dose-dependent manner”.

Q: What about the “Complete or partial response” value [4] of the same compound?
A: The value was “No patients”.

Q: And the “Stable disease, patients” value [4]?
A: Its value is “five”.

Q: And the “Disease control rate (DCR)” value ([5]; 5 mg BID, solid tumours bearing a CDK-related tumour mutation (n=6))?
A: Its value is 33.3%.

Q: What about the Complete response [5, 6] of the same compound?
A: Its Complete response is “none”.

Q: What about the “Disease control rate (DCR)” value [5, 6] of the same compound?
A: Its value is 32.7%.

Q: What about the Partial response [5, 6] of the same compound?
A: Its Partial response is 1.0%.

Q: And the Radiological progressive disease [5, 6]?
A: The Radiological progressive disease was 38.5%.

Q: And the Response rate [5, 6]?
A: The Response rate was 1.0%.

Q: What about the Stable disease [5, 6] of the same compound?
A: Its Stable disease is 31.7%.

Q: What about the “Disease control rate (DCR)” value ([5]; lymphoid malignancy dose-escalation cohorts) of the same compound?
A: Its value is 42.9%.

Q: And the “Complete or partial response” value [5, 7]?
A: Its value is “none”.

Q: What about the “Stable disease, patients” value [5, 7] of the same compound?
A: The value was “three”.
